IC50 data for six compounds are collected here from patent US8198273B2, “Compounds and methods for kinase modulation, and indications therefor” (Plexxikon Inc., priority 2009, dated 2012).

Assay [1] deals with SW620 colon adenocarcinoma cells (wild-type B-RAF). The experiment in a line: SW620 cell growth inhibition (ATPlite). The format is cell-based. Conditions: Homo sapiens, SW-620, 72 h; SW620, 3 days incubation. The method, then: (§1) Compounds are assessed in a variety of cell based assays. For example human cell lines with B-Raf V600E mutation (A375 melanoma, SKMEL3 melanoma, and COL0205 colon adenocarcinoma), as well as tumorigenic cell lines with wild-type B-RAF (SW620 colon adenocarcinoma) or with Ras mutations (SKMEL2 melanoma and IPC298 melanoma). Similar assays may be used to assess additional tumorigenic cell lines with Ras mutations, including, but not limited to, M202, M207, M243, M244, M296, S117, HCT116, HCT15, DLD1, MiaPaCa, A549, NCI-H23, NCI-H460, HOP62, MDA-MB231, Hs-578T, HL60, MOLT-4, and CCRF-CEM.
(§2) On day 1, cells are counted, then centrifuged in a conical tube for 5 minutes at 1000 rpm. The supernatant is removed and cells are re-suspended as follows: • SW620 (ATCC catalog #CCL-27): resuspend in Leibovitz's L-15 medium, 2 mM L-glutamine, 10% fetal bovine serum to 6×10^4 cells/mL. • A375 (ATCC catalog #CRL-1619): resuspend in Dulbecco's modified Eagle's medium, 4 mM L-glutamine, 4.5 g/L D-glucose, 10% fetal bovine serum to 6×10^4 cells/mL. • COL0205 (ATCC catalog #CCL-222): resuspend in RPMI 1640, 2 mM L-glutamine, 1.5 g/L sodium bicarbonate, 4.5 g/L D-glucose, 10 mM HEPES, 1.0 mM sodium pyruvate, 10% fetal bovine serum to 6×10^4 cells/mL. • SKMEL2 (ATCC catalog #HTB-68): resuspend in Minimum Eagle essential medium, 2 mM L-glutamine, 1.5 g/L sodium bicarbonate, 0.1 mM non-essential amino acids, 1.0 mM sodium pyruvate, 10% fetal bovine serum to 6×10^4 cells/mL. • SKMEL3 (ATCC catalog #HTB-69): resuspend in McCoy's 5A medium, 1.5 mM L-glutamine, 15% fetal bovine serum to 6×10^4 cells/mL. • IPC298 (DSMZ catalog #ACC 251): resuspend in RPMI 1640, 2 mM L-glutamine, 10% fetal bovine serum to 6×10^4 cells/mL.
(§3) The cells are plated, 50 μL in each well of a 96-well dish (Corning 3610) and incubated at 37° C. in 5% CO2 overnight, cells plated to a final concentration of cells as follows:
(§4) On day 2, compound at a maximum concentration of 5 mM is serially diluted 1:3 for a total of 8 point titration with DMSO as a control. A 1 μL aliquot of each dilution point and control is added to 249 μL growth media and 50 μL is added to a well containing cells, providing 10 μM compound at the maximum concentration point. The cells are incubated for 3 days at 37° C. in 5% CO2.
(§5) On day 5, ATPlite 1 step Luminescence Assay System (Perkin Elmer #6016739) is brought to room temperature along with the cell cultures. ATPlite is added 25 μL to each well, shake for 2 minutes, and the cells are incubated at room temperature for 10 minutes, then luminescence is read on Safire reader. The measured luminescence correlates directly with cell number, such that the reading as a function of compound concentration is used to determine the IC50 value.
(§6) It is understood that the results of these assays may vary as assay conditions are varied. Inhibition levels determined under the conditions described herein represent a relative activity for the compounds tested under the specific conditions employed. The cell based assays are likely to show variability due to the complexity of the system and the sensitivity thereof to any changes in the assay conditions. […] Results for compounds that are tested and show substantially no inhibition below the highest tested concentration are represented as “-” in the tables below. In some instances, the compounds were not tested in all of the assays, or assay results were not valid, as indicated by NA in the tables below.
For orientation: ATP-based viability assays read luminescence as a measure of living cells.

For assay [2], the system named is A375 melanoma cells (B-Raf V600E). The experiment in a line: A375 cell growth inhibition (ATPlite). It counts as cell-based. The note with it: Homo sapiens, A-375, 72 h; A375, 3 days incubation. The method, then: as §1, §2, §3, §4, §5, §6
Assay [3] has as its system COLO205 colon adenocarcinoma cells (B-Raf V600E). The assay is described as follows: COLO205 cell growth inhibition (ATPlite). It counts as cell-based. The note with it: Homo sapiens, COLO 205, 72 h; COLO205, 3 days incubation. Here is the method: as §1, §2, §3, §4, §5, §6
Assay [4] deals with SKMEL2 melanoma cells (Ras mutation). The assay is described as follows: SKMEL2 cell growth inhibition (ATPlite). It counts as cell-based. Conditions: Homo sapiens, SK-MEL-2, 72 h; SKMEL2, 3 days incubation. Here is the method:
as §1, §2, §3
SKMEL2: 2,000 cells per well.
as §4, §5, §6

The next assay deals with T1, A-Raf (Homo sapiens, UniProt P10398).
T1 sequence (P10398 1-606): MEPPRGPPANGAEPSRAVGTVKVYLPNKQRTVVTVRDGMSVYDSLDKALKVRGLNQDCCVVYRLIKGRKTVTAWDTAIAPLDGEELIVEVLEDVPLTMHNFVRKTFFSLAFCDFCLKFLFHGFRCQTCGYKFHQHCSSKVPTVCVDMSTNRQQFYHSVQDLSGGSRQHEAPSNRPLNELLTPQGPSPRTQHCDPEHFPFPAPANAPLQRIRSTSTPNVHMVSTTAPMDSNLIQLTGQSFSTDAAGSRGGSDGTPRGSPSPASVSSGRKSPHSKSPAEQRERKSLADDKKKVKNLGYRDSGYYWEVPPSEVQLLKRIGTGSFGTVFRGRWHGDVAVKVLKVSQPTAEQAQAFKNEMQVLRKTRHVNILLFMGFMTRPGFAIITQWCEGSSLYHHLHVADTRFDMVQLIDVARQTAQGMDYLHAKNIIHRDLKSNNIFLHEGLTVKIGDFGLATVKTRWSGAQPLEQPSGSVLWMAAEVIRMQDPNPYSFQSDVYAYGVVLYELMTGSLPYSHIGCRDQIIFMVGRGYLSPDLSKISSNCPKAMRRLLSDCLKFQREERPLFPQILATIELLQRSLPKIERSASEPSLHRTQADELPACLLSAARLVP
The assay is described as follows: A-Raf biochemical kinase inhibition (AlphaScreen, biotin-MEK1 substrate). Conditions: 100 μM ATP. Here is the method:
(§7) Compounds to be tested are diluted in dimethyl sulfoxide to a concentration of 0.1 mM. These are serially diluted 15 μL into 30 μL of dimethyl sulfoxide seven times in 96 well plates for a total of 8 dilution points, and for each dilution point 1 μL is added to a well of an assay plate. […] The reaction is started with addition of 10 μL of 200 μM ATP (i.e. final 100 μM ATP). […] The plates are incubated for 3 hours at room temperature and read on Envision reader (Perkin Elmer). […] The signal vs. compound concentration is used to determine the IC50.
(Bead proximity is the source of the signal in Alpha formats.)

The target in a further assay is B-Raf (Homo sapiens, UniProt P15056). The assay is described as follows: B-Raf biochemical kinase inhibition (AlphaScreen, biotin-MEK1 substrate). Conditions: 100 μM ATP. Here is the method:
as §7

Another assay addresses B-Raf V600E (Homo sapiens, UniProt P15056, V600E). The assay is described as follows: B-Raf V600E biochemical kinase inhibition (AlphaScreen, biotin-MEK1 substrate). The note with it: 100 μM ATP. The method, then: as §7
Another assay concerns the target c-Raf-1 (Homo sapiens, UniProt P04049). The assay is described as follows: c-Raf-1 biochemical kinase inhibition (AlphaScreen, biotin-MEK1 substrate). The note with it: 100 μM ATP. The method, then: as §7

Chain of B-Raf V600E (P15056 whole entry V600E): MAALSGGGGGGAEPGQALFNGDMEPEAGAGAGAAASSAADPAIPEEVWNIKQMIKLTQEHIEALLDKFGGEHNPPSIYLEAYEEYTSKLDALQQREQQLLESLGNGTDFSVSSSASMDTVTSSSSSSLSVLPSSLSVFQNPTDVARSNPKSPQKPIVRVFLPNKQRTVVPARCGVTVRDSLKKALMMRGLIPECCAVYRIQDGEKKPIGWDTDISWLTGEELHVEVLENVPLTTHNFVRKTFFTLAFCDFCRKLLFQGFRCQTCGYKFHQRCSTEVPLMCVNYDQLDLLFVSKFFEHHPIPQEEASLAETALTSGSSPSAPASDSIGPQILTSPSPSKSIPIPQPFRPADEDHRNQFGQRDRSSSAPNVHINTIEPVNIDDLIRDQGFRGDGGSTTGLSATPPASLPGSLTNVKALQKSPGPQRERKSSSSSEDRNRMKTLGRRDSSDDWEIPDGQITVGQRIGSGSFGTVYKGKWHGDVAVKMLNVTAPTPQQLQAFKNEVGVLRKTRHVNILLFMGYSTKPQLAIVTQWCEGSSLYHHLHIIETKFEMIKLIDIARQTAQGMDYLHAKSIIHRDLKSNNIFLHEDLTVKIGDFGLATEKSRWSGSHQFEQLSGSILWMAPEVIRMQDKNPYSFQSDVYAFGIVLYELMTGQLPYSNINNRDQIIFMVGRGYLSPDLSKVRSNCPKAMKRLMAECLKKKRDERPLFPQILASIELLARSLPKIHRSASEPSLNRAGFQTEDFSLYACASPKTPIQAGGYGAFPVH
Chain of B-Raf (P15056 whole entry): as the sequence (P15056 whole entry V600E) above, with E600V counted along it
Chain of c-Raf-1 (P04049 whole entry): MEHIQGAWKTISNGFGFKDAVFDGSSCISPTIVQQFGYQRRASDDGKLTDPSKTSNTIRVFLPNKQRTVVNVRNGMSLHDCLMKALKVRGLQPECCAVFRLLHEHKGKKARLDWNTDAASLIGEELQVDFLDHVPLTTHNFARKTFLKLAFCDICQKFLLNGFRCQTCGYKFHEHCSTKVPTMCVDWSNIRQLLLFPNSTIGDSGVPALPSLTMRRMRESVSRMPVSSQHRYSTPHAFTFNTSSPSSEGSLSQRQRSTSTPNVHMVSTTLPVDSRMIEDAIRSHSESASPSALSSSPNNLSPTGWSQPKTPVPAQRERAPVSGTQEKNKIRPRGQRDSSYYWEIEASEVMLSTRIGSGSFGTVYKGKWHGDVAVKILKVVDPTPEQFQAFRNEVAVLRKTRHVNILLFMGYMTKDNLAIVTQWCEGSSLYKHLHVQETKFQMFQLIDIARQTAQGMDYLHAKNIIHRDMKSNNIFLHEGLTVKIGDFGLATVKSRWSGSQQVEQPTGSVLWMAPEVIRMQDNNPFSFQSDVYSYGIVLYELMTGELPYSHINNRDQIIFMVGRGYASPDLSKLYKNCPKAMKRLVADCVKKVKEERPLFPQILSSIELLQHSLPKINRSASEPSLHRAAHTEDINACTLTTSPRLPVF

As a reminder, the IC50 is the midpoint of a concentration-inhibition curve. A high value points to weaker potency. As for `O=C(c1c(F)ccc(NS(=O)(=O)c2cccnc2)c1F)c1c[nH]c2nccc(Cl)c12` [P-2074, Pyridine-3-sulfonic acid [3-(4-chloro-1H-pyrrolo[2,3-b]pyridine-3-carbonyl)-2,4-difluoro-phenyl]-amide], the IC50 in assay [1] is greater than 10000 nM; in assay [2], less than 5000 nM; in assay [3] it was less than 10000 nM; in assay [4] it was greater than 10000 nM.
With `CCCS(=O)(=O)Nc1ccc(F)c(C(=O)c2c[nH]c3ncc(-c4ccc(C(N)=O)nc4)cc23)c1F` [P-2220, 5-{3-[2,6-Difluoro-3-(propane-1-sulfonylamino)-benzoyl]-1H-pyrrolo[2,3-b]pyridin-5-yl}-pyridine-2-carboxylic acid amide], the IC50 against A-Raf was less than 10 nM; at B-Raf it was less than 100 nM; against B-Raf V600E, less than 100 nM; at c-Raf-1, less than 100 nM; in assay [1] it was greater than 10000 nM; in assay [2], less than 1000 nM. Further, the IC50 in assay [3] was less than 1000 nM.
`CCCS(=O)(=O)Nc1ccc(F)c(C(=O)c2c[nH]c3ncc(-c4ccc(C)nc4F)cc23)c1F` [P-2172, Propane-1-sulfonic acid {2,4-difluoro-3-[5-(2-fluoro-6-methyl-pyridin-3-yl)-1H-pyrrolo[2,3-b]pyridine-3-carbonyl]-phenyl}-amide]: the IC50 is less than 100 nM at B-Raf; less than 100 nM on B-Raf V600E; less than 10000 nM in assay [1]; less than 1000 nM in assay [2]; less than 1000 nM in assay [3]; less than 5000 nM in assay [4].
In the case of `CC(C)CS(=O)(=O)Nc1ccc(F)c(C(=O)c2c[nH]c3ncc(-c4cnn(C)c4)cc23)c1F` [P-2299, 2-Methyl-propane-1-sulfonic acid {2,4-difluoro-3-[5-(1-methyl-1H-pyrazol-4-yl)-1H-pyrrolo[2,3-b]pyridine-3-carbonyl]-phenyl}-amide], the IC50 is less than 10 nM against B-Raf; less than 10 nM against B-Raf V600E; greater than 10000 nM in assay [1]; less than 1000 nM in assay [2]; less than 1000 nM in assay [3]; greater than 10000 nM in assay [4].
For `CCCS(=O)(=O)Nc1ccc(F)c(C(=O)c2c[nH]c3ncc(-c4ccc(O)nc4)cc23)c1F` [P-2234, Propane-1-sulfonic acid {2,4-difluoro-3-[5-(6-hydroxy-pyridin-3-yl)-1H-pyrrolo[2,3-b]pyridine-3-carbonyl]-phenyl}-amide], the IC50 against A-Raf is less than 10 nM; at B-Raf it was less than 10 nM; on B-Raf V600E, less than 10 nM; on c-Raf-1, less than 10 nM; in assay [1], greater than 10000 nM; in assay [2], less than 5000 nM. The values for the IC50 in assay [3] and in assay [4] were less than 5000 nM and greater than 10000 nM, respectively.
With `CCCS(=O)(=O)Nc1ccc(F)c(C(=O)c2c[nH]c3ncc(-c4ccc(NC(C)=O)cc4)cc23)c1F` [P-2161, N-(4-{3-[2,6-Difluoro-3-(propane-1-sulfonylamino)-benzoyl]-1H-pyrrolo[2,3-b]pyridin-5-yl}-phenyl)-acetamide], the IC50 on B-Raf V600E was less than 10 nM; in assay [1], greater than 10000 nM; in assay [2] it was less than 1000 nM; in assay [3] it was less than 1000 nM; in assay [4] it was less than 10000 nM.
